This data set is described as follows: Hygroscopicity: % weight change (w/w) against target relative humidity at 25 degrees C (moisture sorption isotherm). Format: physicochemical. As to the method:
The hygroscopicities of three samples of the compound of formula (I) monohydrate prepared in accordance with the above method were tested by measuring their % weight change (w/w) over a target relative humidity band of 0 to 90% at 25 degrees C.
To make these measurements, the following instruments and parameters were used: • Hiden IGASORP, Serial: IGA SA-040; • Hiden Intelligent Analyser, Model: HAS-022-120E, Serial: HALIGA-0042; • Flow=495 ml/min
The hydroscopicity of a sample of the compound of formula (I) trihydrate prepared in accordance with the above method was tested by measuring % weight change (w/w) over a target relative humidity band of 0 to 90% at 25° C.
The hygroscopicity of a sample of the dihydrochloride salt prepared in accordance with the above method was tested by measuring its % weight change (w/w) over a target relative humidity band of 30 to 80% at 25 degrees C.

`CC(=N)NCCSCC[C@H](N)C(=O)O.O.O=P(O)(O)O` [compound of formula (I) monohydrate, (2S)-2-amino-4-{[2-(ethanimidoylamino)ethyl]thio}butanoic acid, compound with phosphoric acid, monohydrate]: the “uptake of atmospheric moisture” value (below a relative humidity of 70%, three samples, FIGS. 1 to 3) is recorded as “no significant uptake of atmospheric moisture”.

In the case of `CC(=N)NCCSCC[C@H](N)C(=O)O.Cl` [dihydrochloride salt, (2S)-2-amino4-{[2-(ethanimidoylamino)ethyl]thio}butanoic acid, compound with hydrochloric acid], the “uptake of atmospheric moisture” value (above 50% relative humidity, FIG. 4) was “rapid uptake of atmospheric moisture”. For the same compound, the mass change result (at 55% relative humidity) is listed as “about 11%”, the mass change entry (at 60% relative humidity) is “about 24%”, the mass change entry (at 65% relative humidity) is on record as “about 32%” and the mass change entry (over a relative humidity range of 30-75%) is on record as “about 47%”.

Source of the values: patent US7317040B2, “Nitric oxide synthase inhibitor phosphate salt” (SmithKline Beecham Corporation, priority 2000, dated 2008).
